# Assay results taken from patent US11479802B2, “Assays for screening activity of modulators of members of the hydroxy steroid (17-beta) dehydrogenase (HSD17B) family” (Regeneron Pharmaceuticals, Inc., priority 2017, dated 2022).
# Experiments:
# Format in all cases: biochemical
# HSD17B10 = target: T1, HSD17B10 (Homo sapiens, UniProt Q99714); assay: Steroid substrate panel against HSD17B family member B10; details: substrate at 50 μM; estradiol set as 100%
# T1 construct: made in house
# T1 sequence (Q99714 1-261): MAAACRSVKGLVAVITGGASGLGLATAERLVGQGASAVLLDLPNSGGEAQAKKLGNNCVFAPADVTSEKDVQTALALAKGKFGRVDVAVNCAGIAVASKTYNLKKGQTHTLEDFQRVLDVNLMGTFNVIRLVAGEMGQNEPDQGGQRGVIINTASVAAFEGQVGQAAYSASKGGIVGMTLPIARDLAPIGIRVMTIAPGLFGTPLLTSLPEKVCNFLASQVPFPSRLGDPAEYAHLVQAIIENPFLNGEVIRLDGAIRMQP
# Method: (§1) To understand the functional consequences of premature truncation of the HSD17B13 protein due to rs72613567:TA (the associated variant, rs72613567, is an insertion of an adenine adjacent to the donor splice site of exon six (TA allele)), the enzymatic activity of isoforms A and D was evaluated in vitro using recombinant protein and nicotinamide […] dinucleotide as cofactor. Reactions were performed in a final volume of 40 μl of assay buffer (0.2 M Tris-HCl, pH 7.5) which contained 500 μM NAD^+, 5 μM bioactive lipid or 50 μM steroid (all in a final concentration of 5% DMSO), and 100 ng of recombinant human HSD17B13. Reactions were incubated for 3 hours, at 23° C., after which an equal volume detection reagent was added. Following a 1 hour incubation at 23° C., the relative light units (RLUs) were measured on an Envision Plate Reader (Perkin Elmer). Raw RLU values were normalized as percent of control (50 μM estradiol) following subtraction of negative control (5% DMSO) using the following formula: Percent of control (POC)=100×(Sample (RLU)−Negative CTRLaverage)/(Positive CTRLaverage−Negative CTRLaverage).
# (§2) In order to determine specificity of compounds with inhibitory activity against HSD17B13, assays for selected members of the HSD17B family which includes HSD17B1-HSD17B14 were established. As a first step, selected family members were expressed, purified and tested for activity a using a steroid substrate panel. Substrates from the steroid panel were tested at 50 μM, using the standard assay protocol. Activity against the substrates for each HSD17B family member were normalized to Percent of Control (POC). The control, estradiol, was set as 100%.
# HSD17B5 = target: T2, HSD17B5 (Homo sapiens, UniProt P42330); assay: Steroid substrate panel against HSD17B family member B5; details: substrate at 50 μM; estradiol set as 100%
# T2 construct: made in house
# T2 sequence (P42330 1-323): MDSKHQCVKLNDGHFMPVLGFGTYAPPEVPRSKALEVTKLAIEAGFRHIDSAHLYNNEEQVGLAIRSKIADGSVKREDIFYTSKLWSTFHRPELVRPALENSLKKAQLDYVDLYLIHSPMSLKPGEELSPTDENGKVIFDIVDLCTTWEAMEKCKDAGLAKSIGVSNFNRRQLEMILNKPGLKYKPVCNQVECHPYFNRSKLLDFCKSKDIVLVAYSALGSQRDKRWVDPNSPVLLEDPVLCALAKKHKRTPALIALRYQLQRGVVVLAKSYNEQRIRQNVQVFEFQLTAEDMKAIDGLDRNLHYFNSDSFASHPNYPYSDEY
# Method: as §1, §2
# HSD17B1 = target: T3, HSD17B1 (Homo sapiens, UniProt P14061); assay: Steroid substrate panel against HSD17B family member B1; details: substrate at 50 μM; estradiol set as 100%
# T3 construct: made in house
# T3 sequence (P14061 1-328): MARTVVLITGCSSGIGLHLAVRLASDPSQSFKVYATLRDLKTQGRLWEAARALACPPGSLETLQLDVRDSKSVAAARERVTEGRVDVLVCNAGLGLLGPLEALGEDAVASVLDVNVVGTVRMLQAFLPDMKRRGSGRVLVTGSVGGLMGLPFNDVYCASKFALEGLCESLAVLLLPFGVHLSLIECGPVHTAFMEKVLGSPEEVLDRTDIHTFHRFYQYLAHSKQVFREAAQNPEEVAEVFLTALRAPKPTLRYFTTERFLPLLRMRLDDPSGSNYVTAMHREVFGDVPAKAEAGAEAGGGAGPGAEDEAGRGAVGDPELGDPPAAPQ
# Method: as §1, §2
# HSD17B4 = target: T4, HSD17B4 (Homo sapiens, UniProt P51659); assay: Steroid substrate panel against HSD17B family member B4; details: substrate at 50 μM; estradiol set as 100%
# T4 construct: made in house
# T4 sequence (P51659 1-736): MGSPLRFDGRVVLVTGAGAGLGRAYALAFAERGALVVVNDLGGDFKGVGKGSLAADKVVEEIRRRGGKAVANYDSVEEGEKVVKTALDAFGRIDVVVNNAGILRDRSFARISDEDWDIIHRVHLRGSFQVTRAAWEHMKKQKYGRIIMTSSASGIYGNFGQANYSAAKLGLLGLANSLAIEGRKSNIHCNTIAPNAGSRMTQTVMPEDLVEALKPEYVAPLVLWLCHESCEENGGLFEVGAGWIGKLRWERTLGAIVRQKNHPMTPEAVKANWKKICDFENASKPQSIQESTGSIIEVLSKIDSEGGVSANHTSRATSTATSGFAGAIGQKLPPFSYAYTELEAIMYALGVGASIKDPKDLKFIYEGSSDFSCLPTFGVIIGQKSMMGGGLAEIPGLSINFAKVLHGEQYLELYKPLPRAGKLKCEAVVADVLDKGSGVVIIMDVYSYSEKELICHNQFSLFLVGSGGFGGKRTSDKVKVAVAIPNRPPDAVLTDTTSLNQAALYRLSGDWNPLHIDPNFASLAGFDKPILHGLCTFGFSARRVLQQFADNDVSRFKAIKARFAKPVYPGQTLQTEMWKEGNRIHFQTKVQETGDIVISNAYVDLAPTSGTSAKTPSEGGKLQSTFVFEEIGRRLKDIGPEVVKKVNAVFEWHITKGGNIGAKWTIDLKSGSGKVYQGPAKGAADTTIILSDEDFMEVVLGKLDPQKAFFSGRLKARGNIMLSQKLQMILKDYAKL
# Method: as §1, §2
# human HSD17B13 = target: T5, human HSD17B13 (Homo sapiens, UniProt Q7Z5P4); assay: Substrate screening of steroid and bioactive lipid libraries against purified recombinant HSD17B13 (NADH-linked luciferase assay); details: for HSD17B13 Enzymatic Activity Relative Light Units: 500 μM NAD+, 100 ng enzyme, 3 hours at 23° C.; for HSD17B13 Enzymatic Activity Percent Estradiol Control: normalized to 50 μM estradiol after subtraction of 5% DMSO
# T5 sequence (Q7Z5P4 20-300): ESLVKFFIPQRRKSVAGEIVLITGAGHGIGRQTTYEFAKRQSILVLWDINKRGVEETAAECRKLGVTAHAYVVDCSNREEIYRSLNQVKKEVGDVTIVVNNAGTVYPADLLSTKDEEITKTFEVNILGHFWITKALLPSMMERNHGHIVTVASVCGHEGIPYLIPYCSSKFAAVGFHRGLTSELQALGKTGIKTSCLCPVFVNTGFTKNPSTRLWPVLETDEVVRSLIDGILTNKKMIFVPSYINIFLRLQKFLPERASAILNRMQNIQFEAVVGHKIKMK
# Method in brief: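 Substrates (bioactive lipids 5 μM, steroids 50 μM; 5% DMSO) tested with 500 μM NAD+ and 100 ng recombinant human HSD17B13 in 0.2 M Tris-HCl pH 7.5, 3 h, 23° C. Luminescent NADH detection followed 1 h later; RLU normalized to estradiol (50 μM, 100%) and DMSO (0%) controls.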
# HSD17B2 = target: T6, HSD17B2 (Homo sapiens, UniProt P37059); assay: Steroid substrate panel against HSD17B family member B2; details: substrate at 50 μM; estradiol set as 100%
# T6 construct: made in house
# T6 sequence (P37059 1-387): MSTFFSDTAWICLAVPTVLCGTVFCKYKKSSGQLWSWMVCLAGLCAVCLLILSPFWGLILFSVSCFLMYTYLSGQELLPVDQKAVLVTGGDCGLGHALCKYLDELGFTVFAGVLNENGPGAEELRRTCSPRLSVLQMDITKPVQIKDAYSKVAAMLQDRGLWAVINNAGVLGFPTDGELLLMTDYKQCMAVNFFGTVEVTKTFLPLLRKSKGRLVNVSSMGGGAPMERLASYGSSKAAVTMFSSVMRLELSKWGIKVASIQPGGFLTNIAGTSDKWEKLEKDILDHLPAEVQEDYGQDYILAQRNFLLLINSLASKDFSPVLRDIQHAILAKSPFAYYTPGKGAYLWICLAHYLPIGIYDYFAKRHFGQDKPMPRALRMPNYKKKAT
# Method: as §1, §2
# HSD17B11 = target: T7, HSD17B11 (Homo sapiens, UniProt Q8NBQ5); assay: Steroid substrate panel against HSD17B family member B11; details: substrate at 50 μM; estradiol set as 100%
# T7 construct: made in house
# T7 sequence (Q8NBQ5 20-300): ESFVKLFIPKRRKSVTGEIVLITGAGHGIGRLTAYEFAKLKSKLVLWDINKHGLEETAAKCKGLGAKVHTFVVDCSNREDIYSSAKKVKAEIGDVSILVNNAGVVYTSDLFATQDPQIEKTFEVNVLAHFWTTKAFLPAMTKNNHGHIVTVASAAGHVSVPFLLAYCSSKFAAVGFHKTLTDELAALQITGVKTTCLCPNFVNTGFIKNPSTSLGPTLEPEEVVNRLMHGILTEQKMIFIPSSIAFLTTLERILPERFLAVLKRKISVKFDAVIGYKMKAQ
# Method: as §1, §2
SMILES,"Percent of Control (POC), B10 (HSD17B10) [%]","Percent of Control (POC), B5 (HSD17B5) [%]","Percent of Control (POC), B1 (HSD17B1) [%]","Percent of Control (POC), B4 (HSD17B4) [%]","HSD17B13 Enzymatic Activity Relative Light Units (human HSD17B13; Steroid Library, 50 μM steroid) [RLU]","HSD17B13 Enzymatic Activity Percent Estradiol Control (human HSD17B13; Steroid Library, 50 μM steroid) [%]","Percent of Control (POC), B2 (HSD17B2) [%]","Percent of Control (POC), B11 (HSD17B11) [%]","HSD17B13 Enzymatic Activity Percent Estradiol Control (human HSD17B13; Bioactive Lipid Library, 5 μM bioactive lipid) [%]","HSD17B13 Enzymatic Activity Percent Estradiol Control (human HSD17B13; Steroid Library, 50 μM steroid, listed as Beta-estradiol) [%]","HSD17B13 Enzymatic Activity Percent Estradiol Control (human HSD17B13; Steroid Library, 50 μM steroid, listed as Estradiol Control) [%]"
C[C@]12CC[C@@H](O)C[C@@H]1CC[C@@H]1[C@@H]2CC[C@]2(C)C(=O)[C@H](O)C[C@@H]12 [16alpha-Hydroxyandrosterone],69.7,45,0.0,0.5,221840,1.07,1.5,0.0,,,
C[C@]12CC[C@@H]3c4ccc(O)cc4CC[C@H]3[C@@H]1CC[C@@H]2O [Estradiol],100,100,100,100,,85.76,100,100,100.00,72.17,100.00
C[C@]12CC[C@H]3[C@@H](CCC4=CC(=O)CC[C@@]43C)[C@@H]1CC[C@@H]2O [Testosterone],4.0,0,1.1,84.6,1125600,16.86,96.2,10.4,,,
"C[C@]12CCC(=O)C[C@@H]1CC[C@@H]1[C@@H]2CC[C@]2(C)[C@@H](O)CC[C@@H]12 [DHT, dihydroxy testosterone (DHT)]",3.3,0,0.4,37.1,1886360,30.14,61.2,12.7,,,
C[C@]12CC[C@@H](O)C[C@@H]1CC[C@@H]1[C@@H]2CC[C@]2(C)C(=O)CC[C@@H]12 [Androsterone],91.0,0,0.0,0.3,158120,−0.04,1.0,0.0,,,
C[C@]12CC[C@@H](O)C[C@@H]1CC[C@@H]1[C@@H]2[C@@H](O)C[C@@]2(C)[C@H]1CC[C@]2(O)C(=O)CO [5alpha-Tetrahydrocortisol],46.3,0,−0.1,0.2,229040,1.20,3.1,0.0,,,
